Measurements reported in the NIST ThermoML archive (doi:10.1021/acs.jced.7b01033).

Tests used:
[1] = 100.5 kPa, Liquid, Vibrating tube method
[2] = xn = mol fraction of the nth substance listed; conditions: 100.5 kPa, Liquid, Vibrating tube method

CCCCCCn1cc[n+](C)c1C.O=S(=O)([N-]S(=O)(=O)C(F)(F)F)C(F)(F)F
[1]
Conditions	mass density [kg/m3]
293.15 K	1362.2
303.15 K	1353.1
313.15 K	1344.1
323.15 K	1335.2
333.15 K	1326.3
343.15 K	1317.5
353.15 K	1308.7

CCCCn1cc[n+](C)c1C.O=S(=O)([N-]S(=O)(=O)C(F)(F)F)C(F)(F)F
[1]
Conditions	mass density [kg/m3]
293.15 K	1424
303.15 K	1414.6
313.15 K	1405.3
323.15 K	1396
333.15 K	1386.9
343.15 K	1377.8
353.15 K	1368.7

CCC[n+]1ccn(C)c1C.O=S(=O)([N-]S(=O)(=O)C(F)(F)F)C(F)(F)F
[1]
Conditions	mass density [kg/m3]
293.15 K	1460
303.15 K	1450.3
313.15 K	1440.7
323.15 K	1431.2
333.15 K	1421.7
343.15 K	1412.4
353.15 K	1403

CCn1cc[n+](C)c1C.O=S(=O)([N-]S(=O)(=O)C(F)(F)F)C(F)(F)F
[1]
Conditions	mass density [kg/m3]
293.15 K	1496.4
303.15 K	1486.7
313.15 K	1476.9
323.15 K	1467.3
333.15 K	1457.7
343.15 K	1448.2
353.15 K	1438.8

CCCCCCn1cc(C)[n+](C)c1CC.O=S(=O)([N-]S(=O)(=O)C(F)(F)F)C(F)(F)F + CCCCCC[n+]1c(C)cn(C)c1CC.O=S(=O)([N-]S(=O)(=O)C(F)(F)F)C(F)(F)F
[2], x1 = 0.813
Conditions	mass density [kg/m3]
293.15 K	1325.2
303.15 K	1316.2
313.15 K	1307.3
323.15 K	1298.5
333.15 K	1289.7
343.15 K	1281
353.15 K	1272.3

CCCCCCn1cc(C)[n+](C)c1.O=S(=O)([N-]S(=O)(=O)C(F)(F)F)C(F)(F)F + CCCCCC[n+]1cn(C)cc1C.O=S(=O)([N-]S(=O)(=O)C(F)(F)F)C(F)(F)F
[2], x1 = 0.637
Conditions	mass density [kg/m3]
293.15 K	1352.5
303.15 K	1343.3
313.15 K	1334.2
323.15 K	1325.2
333.15 K	1316.3
343.15 K	1307.4
353.15 K	1298.5

CCCCn1cc(C)[n+](C)c1.O=S(=O)([N-]S(=O)(=O)C(F)(F)F)C(F)(F)F + CCCC[n+]1cn(C)cc1C.O=S(=O)([N-]S(=O)(=O)C(F)(F)F)C(F)(F)F
[2], x1 = 0.637
Conditions	mass density [kg/m3]
313.15 K	1391.1
323.15 K	1381
333.15 K	1372.3
343.15 K	1363.1
353.15 K	1353.9

CCCCn1cc(C)[n+](C)c1CC.O=S(=O)([N-]S(=O)(=O)C(F)(F)F)C(F)(F)F + CCCCn1c(C)c[n+](C)c1CC.O=S(=O)([N-]S(=O)(=O)C(F)(F)F)C(F)(F)F
[2], x1 = 0.806
Conditions	mass density [kg/m3]
293.15 K	1371.2
303.15 K	1361.9
313.15 K	1352.8
323.15 K	1343.7
333.15 K	1334.7
343.15 K	1325.8
353.15 K	1316.9

CCC[n+]1cc(C)n(C)c1CC.O=S(=O)([N-]S(=O)(=O)C(F)(F)F)C(F)(F)F + CCC[n+]1c(C)cn(C)c1CC.O=S(=O)([N-]S(=O)(=O)C(F)(F)F)C(F)(F)F
[2], x1 = 0.763
Conditions	mass density [kg/m3]
293.15 K	1401.2
303.15 K	1391.7
313.15 K	1382.3
323.15 K	1373
333.15 K	1363.8
343.15 K	1354.7
353.15 K	1345.5

CCCn1cc(C)[n+](C)c1.O=S(=O)([N-]S(=O)(=O)C(F)(F)F)C(F)(F)F + CCCn1c[n+](C)cc1C.O=S(=O)([N-]S(=O)(=O)C(F)(F)F)C(F)(F)F
[2], x1 = 0.629
Conditions	mass density [kg/m3]
293.15 K	1445.4
303.15 K	1435.6
313.15 K	1425.9
323.15 K	1416.3
333.15 K	1406.9
343.15 K	1397.3
353.15 K	1387.9

CC[n+]1cc(C)n(C)c1.O=S(=O)([N-]S(=O)(=O)C(F)(F)F)C(F)(F)F + CC[n+]1cn(C)cc1C.O=S(=O)([N-]S(=O)(=O)C(F)(F)F)C(F)(F)F
[2], x1 = 0.602
Conditions	mass density [kg/m3]
293.15 K	1483.2
303.15 K	1473.3
313.15 K	1463.4
323.15 K	1453.6
333.15 K	1443.9
343.15 K	1434.2
353.15 K	1424.6

CCc1n(C)c(C)c[n+]1CC.O=S(=O)([N-]S(=O)(=O)C(F)(F)F)C(F)(F)F + CCc1n(C)cc(C)[n+]1CC.O=S(=O)([N-]S(=O)(=O)C(F)(F)F)C(F)(F)F
[2], x1 = 0.735
Conditions	mass density [kg/m3]
293.15 K	1431.7
303.15 K	1422
313.15 K	1412.6
323.15 K	1403.1
333.15 K	1393.8
343.15 K	1384.6
353.15 K	1375.3
